# Laboratory results as given in patent publication US20070112061A1, “Heat- or singlet oxygen-generating agents and cancer treatment compositions comprising organic peroxide or chemiluminescent compound” (priority 2004, published 2007).
# Legend:
# [1] = Solution reaction heat of chemiluminescent reaction started with 1N KOH/MeOH; assay type: physicochemical
# Procedure: Reaction heat and chemiluminescent efficiency relating to chemiluminescent reaction of the peroxides (Chemical formula A to Chemical formula L) were measured. Further, the amount of imidazole formed that indicates generation efficiency of singlet oxygen generated by this reaction was measured.
# (§1) Measurement of reaction heat: heat generated by above-mentioned compounds was measured by a differential thermal analyzer.
# [2] = Solid-state reaction heat by differential thermal analyzer (DSC-50); assay type: physicochemical; settings: for Solid reaction heat: solid state, heated to 80-180° C.
# Procedure: as §1
# Heat measurement of a chemiluminescent system peroxide in the solid state was conducted using a differential thermal analyzer as follows: 2 to 3 mg of the peroxide was weighed, filled into an aluminum capsule, and heated gradually to 80-180° C. by DSC-50 (Shimadzu Corporation) to measure the generated heat.
# Measurement of reaction heat: heat generated from above-mentioned compounds was measured by the differential thermal analyzer in accordance with above-mentioned [Measurement I]. Thermal measurement of a dioxetane compound in the solid state was carried out as follows: 2 to 3 mg of the dioxetane compound was weighed, filled into an aluminum capsule, and heated gradually to 80-180° C. by DSC-50 (Shimadzu Corporation) to measure the generated heat.
# [3] = test system: established cell line from human large intestine cancer; assay: MTT cytotoxicity assay (anticancer effect); assay type: cell-based; settings: for viability at 1 µM / viability at 10 µM / viability at 100 µM: Homo sapiens, read-out: Survival rate of cancer cells; for viability at 1 µM / viability at 10 µM / viability at 100 µM / Survival rate of cancer cells: 48 hours incubation; for anticancer effect compared to MMC: concentration of 100 μM/L; for Survival rate of cells: 100 μM, MTT assay
# Procedure: Cytotoxicity was determined as shown below using MTT method proposed by Mosmann et al. (Mosmann, T.; Rapid colorimetric assay for cellular growth and survival: application proliferation and cytotoxicity assays. J. Immunol. Meth. 65: 55-63, 1983). An established cell line from human large intestine cancer was adjusted on a 10% FCS-containing RPMI 1640 culture solution to have 5×10^3 cells/[…], plated in a 96-well microplate, and incubated for 48 hours. Then, the resultant was added with […] of a peroxide, and incubated under a 5% CO2 condition at 37° C. for 48 hours to determine cytotoxicity by MTT assay^1. MTT assay: Upon completion of the incubation, […] of MTT reagent (5 mg/ml in PBS) was added to each well, and then the formazan left on the bottom of the plate was added with 0.04N HCl to dissolve in isopropanol. OD was measured at a test wavelength and at a reference wavelength of 630 nm.
# Survival rate in percentage was calculated by the following equation: Survival rate=(OD test value/OD reference value)×100 (%)
Compound,Solution Reaction heat [1],Solid reaction heat ([2]; peroxides),viability at 1 µM ([3]; anticancer agent 1 μM/ml),viability at 10 µM ([3]; anticancer agent 10 μM/ml),viability at 100 µM ([3]; anticancer agent 100 μM/ml),further results
"OOC1(c2ccccc2)N=C(c2ccccc2)N=C1c1ccccc1 (centres unmarked) [Chemical formula A, 4-Hydroperoxy-2,4,5-triphenyl-4H-isoimidazole]",53.8 kcal/mol,18.7 kcal/mol,100%,100%,78.3%,melting point: 108 to 110 °C (dec.)
"CN(C)c1ccc(C2=NC(OO)(c3ccc(F)cc3)C(c3ccc(F)cc3)=N2)cc1 (centres unmarked) [Chemical formula B, 4,5-Bis(4-fluorophenyl)-4-hydroperoxy-2-(4-dimethylaminophenyl)-4H-isoimidazole]",66.3 kcal/mol,61.0 kcal/mol,100%,93.7%,37%,melting point: 125 to 128 °C (dec.)
"OOC1(c2ccccc2)N=C(c2ccc(O)cc2)N=C1c1ccccc1 (centres unmarked) [Chemical formula C, 4-Hydroperoxy-2-(4-hydroxyphenyl)-4,5-diphenyl-4H-imidazole]",,53.6 kcal/mol,91.9%,82.2%,11.1%,melting point: 125 to 127 °C (dec.); anticancer effect compared to MMC [3]: comparable to the commercially available MMC
OOC1(c2ccccc2)N=C(c2cccc(O)c2)N=C1c1ccccc1 (centres unmarked) [Chemical formula D],,47.6 kcal/mol,93.3%,92.2%,71.2%,
"OOC1(c2ccccc2)N=C(c2ccccc2O)N=C1c1ccccc1 (centres unmarked) [Chemical formula E, 4-Hydroperoxy-2-(2-hydroxyphenyl)-4,5-diphenyl-4H-isoimidazole]",,,,88.1%,11.8%,anticancer effect compared to MMC [3]: comparable to the commercially available MMC
"OOC1(c2cccc(O)c2)N=C(c2ccccc2)N=C1c1cccc(O)c1 (centres unmarked) [Chemical formula F, 4-Hydroperoxy-4,5-bis(3-hydroxyphenyl)-2-phenyl-4H-isoimidazole]",,,,87.4%,42.2%,
"OOC1(c2ccc3c(c2)OCCOCCOCCOCCO3)N=C(c2ccccc2)N=C1c1ccc2c(c1)OCCOCCOCCOCCO2 (centres unmarked) [Chemical formula G, Bis(crown ether)iophineperoxide]",,,,87.2%,48.2%,
"Nc1ccc(C2=NC(OO)(c3ccccc3)C(c3ccccc3)=N2)cc1 (centres unmarked) [Chemical formula H, 2-(4-Aminophenyl)-4-hydroperoxy-4,5-diphenyl-4H-isoimidazole]",46.0 kcal/mol,35.3 kcal/mol,100%,97.5%,87.4%,
"CC(C)(C)[Si](C)(C)OOC1(c2ccccc2)N=C(c2ccccc2)N=C1c1ccccc1 (centres unmarked) [Chemical formula I, 4-t-Butyldimethylsilylperoxy-2,4,5-triphenyl-4H-isoimidazole]",,91.4 kcal/mol,97.2%,95.9%,60.6%,melting point: 93.5 to 96 °C
O=[N+]([O-])c1ccc(C2=NC(OO)(c3ccccc3)C(c3ccccc3)=N2)cc1 (centres unmarked) [Chemical formula J],48.7 kcal/mol,52.3 kcal/mol,,,,
"O=Cc1ccc(C2=NC(OO)(c3ccccc3)C(c3ccccc3)=N2)cc1 (centres unmarked) [Chemical formula K, 2-(4-Formylphenyl)-4-hydroperoxy-4,5-diphenyl-4H-isoimidazole]",22.4 kcal/mol,15.0 kcal/mol,,,,
"Cc1cc(C)c(C2=NC(OO)(c3ccccc3)C(c3ccccc3)=N2)c(C)c1 (centres unmarked) [Chemical formula L, 4-Hydroperoxy-2-(2′,4′,6′-trimethylphenyl)-4,5-diphenyl-4H-isoimidazole]",54.0 kcal/mol,50.5 kcal/mol,,,,
"COc1ccc(C2(OC)OOC23C2CC4CC(C2)CC3C4)cc1 (centres unmarked) [Chemical formula M, 3-(2′-Spiroadamantane)-4-methoxy-4-(4″-methoxy)phenyl-1,2-dioxetane]",,,,,,Solid reaction heat ([2]; dioxetanes): 68.8 kcal/mol; Survival rate of cells [3]: 55%
"COc1cccc(C2(OC)OOC23C2CC4CC(C2)CC3C4)c1 (centres unmarked) [Chemical formula N, 3-(2′-Spiroadamantane)-4-methoxy-4-(3″-methoxy)phenyl-1,2-dioxetane]",,,,,,Solid reaction heat ([2]; dioxetanes): 66.8 kcal/mol; Survival rate of cells [3]: 67%
OOC1(c2ccccc2)N=C(c2ccc(C3=NC(OO)(c4ccccc4)C(c4ccccc4)=N3)cc2)N=C1c1ccccc1 (centres unmarked) [Chemical formula O],,,,,,generation heat [2]: 47.1 kcal/mol
CC(C)(C)[Si](C)(C)OOC1(c2ccccc2)N=C(c2ccc(C3=NC(OO[Si](C)(C)C(C)(C)C)(c4ccccc4)C(c4ccccc4)=N3)cc2)N=C1c1ccccc1 (centres unmarked) [Chemical formula P],,,,,,generation heat [2]: 147 kcal/mol
OOC1(c2ccccc2)N=C(c2cccc(C3=NC(OO)(c4ccccc4)C(c4ccccc4)=N3)c2)N=C1c1ccccc1 (centres unmarked) [Chemical formula Q],,,,,,generation heat [2]: 30.5 kcal/mol
CC(C)(C)[Si](C)(C)OOC1(c2ccccc2)N=C(c2cccc(C3=NC(OO[Si](C)(C)C(C)(C)C)(c4ccccc4)C(c4ccccc4)=N3)c2)N=C1c1ccccc1 (centres unmarked) [Chemical formula R],,,,,,generation heat [2]: 143 kcal/mol
"CO[C@@]12[C@H](COC(N)=O)C3=C(C(=O)C(C)=C(N)C3=O)N1C[C@@H]1N[C@@H]12 [MMC, mitomycin C, reference compound]",,,,,,Survival rate of cancer cells ([3]; anticancer agent 1 μM/ml): 65.0%; Survival rate of cancer cells ([3]; anticancer agent 10 μM/ml): 28.0%; Survival rate of cancer cells ([3]; anticancer agent 100 μM/ml): 14.5%
